Test results taken from ChEMBL document CHEMBL2074460, “P-glycoprotein-mediated transport of digitoxin, alpha-methyldigoxin and beta-acetyldigoxin” (Naunyn Schmiedebergs Arch Pharmacol, 2001).

These compounds were tested against ATP-dependent translocase ABCB1 (Homo sapiens, UniProt P08183) (assay: TP_TRANSPORTER: transepithelial transport (basal to apical) in MDR1-expressing LLC-PK1 cells). Conditions: pig.
Chain of ATP-dependent translocase ABCB1 (P08183 whole entry): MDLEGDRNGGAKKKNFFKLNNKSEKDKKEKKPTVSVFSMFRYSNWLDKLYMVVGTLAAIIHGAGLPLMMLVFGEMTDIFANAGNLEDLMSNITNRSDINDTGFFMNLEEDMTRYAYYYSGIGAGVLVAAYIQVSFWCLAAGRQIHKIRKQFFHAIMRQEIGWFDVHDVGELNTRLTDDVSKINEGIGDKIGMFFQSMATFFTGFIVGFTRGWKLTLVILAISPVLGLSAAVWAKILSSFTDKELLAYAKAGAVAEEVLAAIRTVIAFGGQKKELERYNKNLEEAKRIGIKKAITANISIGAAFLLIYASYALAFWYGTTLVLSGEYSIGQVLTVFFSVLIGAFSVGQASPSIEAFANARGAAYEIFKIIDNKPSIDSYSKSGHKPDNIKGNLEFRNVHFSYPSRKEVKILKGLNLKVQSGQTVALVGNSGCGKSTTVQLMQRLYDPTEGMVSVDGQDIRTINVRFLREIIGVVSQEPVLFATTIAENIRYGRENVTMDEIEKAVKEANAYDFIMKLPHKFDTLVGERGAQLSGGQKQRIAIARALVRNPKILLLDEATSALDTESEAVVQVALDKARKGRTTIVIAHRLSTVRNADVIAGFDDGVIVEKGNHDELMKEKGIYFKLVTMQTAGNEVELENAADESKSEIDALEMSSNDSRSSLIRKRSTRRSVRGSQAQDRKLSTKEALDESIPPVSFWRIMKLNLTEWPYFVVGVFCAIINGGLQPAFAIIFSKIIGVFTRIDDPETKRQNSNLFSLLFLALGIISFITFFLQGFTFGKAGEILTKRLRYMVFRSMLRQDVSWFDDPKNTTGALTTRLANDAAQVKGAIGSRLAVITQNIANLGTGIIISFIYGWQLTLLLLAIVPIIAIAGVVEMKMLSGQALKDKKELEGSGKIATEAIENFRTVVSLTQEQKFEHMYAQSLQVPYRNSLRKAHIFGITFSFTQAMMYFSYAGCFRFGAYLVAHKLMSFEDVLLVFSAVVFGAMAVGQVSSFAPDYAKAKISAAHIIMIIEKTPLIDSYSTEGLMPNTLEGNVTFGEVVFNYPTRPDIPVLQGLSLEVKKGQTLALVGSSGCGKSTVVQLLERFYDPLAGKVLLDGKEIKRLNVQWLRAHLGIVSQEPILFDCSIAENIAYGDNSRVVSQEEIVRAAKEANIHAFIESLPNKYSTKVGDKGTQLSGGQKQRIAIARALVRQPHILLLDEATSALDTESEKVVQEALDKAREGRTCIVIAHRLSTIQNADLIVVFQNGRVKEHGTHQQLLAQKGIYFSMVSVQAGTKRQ
Type: functional, cell-based
For `CC(=O)O[C@H]1C[C@H](O[C@H]2[C@@H](O)C[C@H](O[C@H]3[C@@H](O)C[C@H](O[C@H]4CC[C@@]5(C)[C@H](CC[C@@H]6[C@@H]5C[C@@H](O)[C@]5(C)[C@@H](C7=CC(=O)OC7)CC[C@]65O)C4)O[C@@H]3C)O[C@@H]2C)O[C@H](C)[C@H]1O` [ACETYLDIGOXIN], the Activity was “substrate [+]”. With `O=C(O)CCC(=O)C(=O)O` [ALPHA-KETOGLUTARIC ACID] the Activity was “substrate [+]”. With `C[C@H]1O[C@@H](O[C@H]2[C@@H](O)C[C@H](O[C@H]3[C@@H](O)C[C@H](O[C@H]4CC[C@@]5(C)[C@H](CC[C@@H]6[C@@H]5CC[C@]5(C)[C@@H](C7=CC(=O)OC7)CC[C@]65O)C4)O[C@@H]3C)O[C@@H]2C)C[C@H](O)[C@@H]1O` [DIGITOXIN] the Activity was “substrate [+]”.
